Here are results for two compounds from patent US20140011853A1, “SUBSTITUTED 3-(BIPHENYL-3-YL)-8,8-DIFLUORO-4-HYDROXY-1-AZASPIRO[4.5]DEC-3-EN-2-ONES FOR THERAPY” (BAYER INTELLECTUAL PROPERTY GMBH, priority 2011, published 2014).

As usually defined, the MTD is the highest dose tested that stayed within the study's limit of toxicity. Low readings indicate a narrow tolerated range, high ones a wide tolerated range. For orientation: AUC means the area under the concentration-time curve, a measure of exposure. Low readings indicate low exposure, high ones high exposure.

Series [1] can be described thus: Plasma protein binding by equilibrium dialysis, rat. The class given is in vitro ADME. The settings on record: read-out: fu (rat). The procedure: The binding of test substances to plasma proteins is determined by equilibrium dialysis by means of the Ht-dialysis apparatus (96-well) made of Teflon and a semipermeable membrane (regenerated cellulose, MWCO 12-14K). This separates 150 μl each of a plasma side and a buffer side (50 mM phosphate buffer). The test substance is added in 2 concentrations (usually 3 and 0.3 μM) to the plasma side and binds to plasma proteins. The unbound fraction of the test substance passes through the membrane and is distributed on either side until equilibrium is established (after approx. 6-8 h at 37° C.). The substance concentration on the buffer side and the plasma side is determined by LC-MS analysis. For this, both sides are brought by dilution with buffer or plasma to the same matrix (10% plasma) and then precipitated with methanol. The free (unbound) fraction (fu) is calculated from the quotient of the buffer and plasma concentration. Stability tests and recovery tests are run concurrently as controls. In addition, the substance in buffer is dialysed against buffer, to check the nonspecific binding to apparatus and membrane and establishment of equilibrium. Because during incubation the osmotic pressure of the plasma proteins leads to dilution of the plasma (volume shift), this possible error is determined by weighing blank plasma samples and is included in the calculation of fu. Establishment of equilibrium and plasma stability should have a value not lower than 80% and the recovery should be at least 30%. A free fraction of <1% is regarded as high, between 1 and 10% as moderate and >10% as low plasma protein binding.
A general note: In equilibrium dialysis only unbound substance equilibrates across the membrane.

Series [2] in a line: Prediction of human pharmacokinetic parameters and human therapeutic dosage.
Experimental: The human pharmacokinetic (PK) parameters (Table 9) were predicted based on the in vivo PK parameters obtained for rats (single species scaling), taking into account the interspecies differences in the free fraction (fu) in the plasma. The effective AUC (area under curve) was determined based on the measured plasma concentration time profile for in vivo efficacy in the PC3 tumour model of the mouse (nu/nu mouse).
Series [3] is described as follows: Maximum tolerated dose (MTD) in the mouse. The format is in vivo. Conditions: for Deaths: 21 days; for MTD at 21 days: female, NMRI-nude (nu/nu), mouse, in vivo, oral, 21-day treatment. On the procedure: The MTD was defined as the highest dose which could be administered without any animal dying during the treatment phase, and without any body weight loss of more than 10% compared to the initial weight.
Example 1-1 was administered to female nude mice (NMRI nu/nu):
The treatment phase was followed by an observation phase of 21 days.

For series [4], the system named is PC-3 prostate carcinoma xenograft. Briefly: PC-3 prostate carcinoma xenograft model in the mouse. Conditions: for T/C: 17 days, 2 administrations per day. On the procedure:
(§1) Xenograft models in immunosuppressed mice were used to determine the antitumour activity in living organisms.
(§2) Use was made primarily of a prostate carcinoma model with hormone-independent human PC-3 cells in male nude mice (NMRI-nude (nu/nu) mice, Taconic M&B A/S). To this end, 3 million tumour cells (suspended in medium+Matrigel) 1:1, final 0.1 ml) were injected subcutaneously into the side of each animal. When the tumours extended to an area of 20-30 mm^2., the mice were randomized into therapy groups and therapy was initiated. […] At this point in time, the experiment was terminated in all groups and the prepared tumours were weighed. The T/C value was calculated as primary success parameter using the effect on the final tumour weight: mean tumour weight in the treatment group divided by mean of the tumour weight in the vehicle group.
(§3) Administration route: per os Vehicle: PEG400/ethanol/Solutol HS 15 (70/5/25, v/v/v) Administration volume: 10 ml/kg

Test in series [5]: as above
Conditions: male, NMRI-nude (nu/nu), mouse, in vivo, po. On the procedure: as §1, §2, §3

The subject of a further series is human ACC1. Description: Human ACC1 enzyme assay (ADP-Glo). The format is biochemical. For orientation: In ADP-Glo the light output rises with the ADP produced.
The nature of series [6]: Membrane affinity logMA (MA-Transil). The format is physicochemical. The settings on record: buffer pH 7.4.

Turning to `Cc1ccc(-c2ccc(Cl)c(F)c2)cc1C1=C(O)C2(CCC(F)(F)CC2)NC1=O` [Example 1-1, 3-(4′-Chloro-3′-fluoro-4-methylbiphenyl-3-yl)-8,8-difluoro-4-hydroxy-1-azaspiro[4.5]dec-3-en-2-one], in series [1], the fraction unbound came to 0.0027. The “calc. AUC (human)” value in series [2] (from mouse dosage 40 mg/kg 2 × per day) was 1882 µg·h/mL; in series [2] (from mouse dosage 80 mg/kg 2 × per day), 3041 µg·h/mL. For the same compound, the “pred. CL (human)” value in series [2] (predicted (fu-corrected), single species scaling from rat) was 3 mL/h/kg. Besides, the Deaths in series [3] (12.5 mg/kg per os, 1 administration per day) is recorded as 0 of 4; in series [3] (25 mg/kg per os, 1 administration per day) it was 0 of 4; in series [3] (50 mg/kg per os, 1 administration per day) it was 0 of 4; in series [3] (50 mg/kg per os, 2 administrations per day), 0 of 4; in series [3] (75 mg/kg per os, 1 administration per day) it was 0 of 4; in series [3] (100 mg/kg per os, 1 administration per day), 0 of 4. The MTD at 21 days in series [3] (50 mg/kg, administration twice per day) is greater than 50 mg/kg; in series [3] (administration once per day) it was greater than 100 mg/kg. In addition, the T/C in series [4] (40 mg/kg per os) came to 0.26; in series [4] (80 mg/kg day 1-3, 70 mg/kg from day 4 onwards, per os) it was 0.26. In addition, the “Reduction in body weight in individual animals” value in series [4] (80 mg/kg, 2 times per day, after 3 days) was “more than 10%”. Also, the results for the AUC in series [5] (40 mg/kg) and in series [5] (80 mg/kg) were 376 µg·h/mL and 6080 µg·h/mL, respectively.
For the compound `Cc1ccc(-c2ccc(Cl)cc2)cc1C1=C(O)C2(CCC(F)(F)CC2)NC1=O` [Example 1-2, 3-(4′-Chloro-4-methylbiphenyl-3-yl)-8,8-difluoro-4-hydroxy-1-azaspiro[4.5]dec-3-en-2-one], in the series on human ACC1, the “Selectivity ACC1 vs. ACC2 (mean of the individual measurements ± standard deviation)” value was determined as 13.4 ± 4.5. Moreover, in series [6], the logMA is on record as 1.83 (1.7-1.9, n = 3).
